The subject of this assay is blood platelet activating factor (PAF). Briefly: Inhibition of PAF-induced platelet aggregation in platelet-rich plasma (aggregometer). Type of assay: cell-based. The following applies: rabbit platelet-rich plasma, 37° C., stirring; test substance added 2 minutes before PAF (4 nM, sub-maximum dosage); read-out: IC50 (concentration of the test substance which reduces to a half the aggregation of the blood platelets brought about by PAF). As for the experimental part: The aggregation of the blood platelets was measured with the aid of an aggregometer at 37° C. while stirring. […] The IC50 value (in μM) given in the following Table corresponds to that concentration of the test substance which reduces to a half the aggregation of the blood platelets brought about by PAF.
`CCCCCCCCCCCCCCCCCCNC(=O)OCC(COC(=O)CCC[n+]1ccsc1)OC` (racemic) [Example 20b, 3-[3-[[(RS)-2-methoxy-3-[(octadecylcarbamoyl)oxy]propoxy]carbonyl]propyl]thiazolium chloride]: the IC50 came to 250 nM.

Take `CCCCCCCCCCCCCCCCCCOC[C@H](COC(=O)OCC[n+]1ccccc1)OC(=O)NC` [Example 3, 1-[2-[[[(R)-2-[(methylcarbamoyl)oxy]-3-(octadecyloxy)propoxy]carbonyl]oxy]ethyl]pyridinium bromide]: the IC50 came out at 3000 nM. For the compound `CCCCCCCCCCCCCCCCCCOCC(COC(=O)CC[n+]1ccccc1)NC(=O)OC` (racemic) [Example 15], the IC50 turned out to be 3000 nM.

As for `CCCCCCCCCCCCCCCCCCOC[C@H](COC(=O)OCC[n+]1ccccc1)OC(=O)OC` [Example 10, 1-[2-[[(R)-2-[(methoxycarbonyl)oxy]-3-(octadecyloxy)propoxy]carbonyl]oxy]ethyl]pyridinium bromide], the IC50 worked out at 3000 nM.

`CCCCCCCCCCCCCCCCCCNC(=O)OC[C@H](COC(=O)OCC[n+]1ccccc1)OC(=O)OC` [Example 11, 1-[2-[[[(R)-2-[(methoxycarbonyl)oxy]-3-(octadecylcarbamoyl)oxy]propoxy]carbonyl]oxy]ethyl]pyridinium bromide]: the IC50 came to 600 nM. Take `CCCCCCCCCCCCCCCCCCNC(=O)OCC(COC(=O)NCC[n+]1ccccc1)OC` (racemic) [Example 7a, 1-[2-[1-[(RS)-2-methoxy-3-(octadecylcarbamoyloxy)propoxy]formamido]ethyl]pyridinium chloride]: the IC50 stood at 2000 nM. Then `CCCCCCCCCCCCCCCCCCNC(=O)OC[C@H](COC(=O)CCC[n+]1ccsc1)OC(=O)OC` [Example 21f, 3-[3-[[(S)-2-[(methoxycarbonyl)oxy]-3-[(octadecylcarbamoyl)oxy]propoxy]carbonyl]propyl]thiazolium iodide], with 60 nM; and `CCCCCCCCCCCCCCCCCCNC(=O)OCC(COC(=O)CCC[n+]1ccsc1)NC(=O)OC` (racemic) [Example 24, 1-[3-[[(RS)-2-(1-methoxyformamido)-3-(octadecylcarbamoyloxy)propoxy]carbonyl]propyl]thiazolium chloride], with 150 nM. `CCCCCCCCCCCCCCCCCCOC(=O)NCC(COC(=O)CCC[n+]1ccccc1)OC(=O)OC` (racemic) [Example 26, 1-[3-[[(RS)-2-[(methoxycarbonyl)oxy[-3-[1-(octadecyloxy)-formamido]propoxy]carbonyl]propyl]pyridinium chloride]: the IC50 came to 400 nM. For `CCCCCCCCCCCCCCCCCCNC(=O)OCC(COC(=O)OCC[n+]1ccccc1)OC` (racemic) [Example 7b, 1-[2-[[[(RS)-2-methoxy-3-[(octadecylcarbamoyl)oxy]propoxy]carbonyl]oxy]ethyl]pyridinium bromide], the IC50 was 1600 nM.

On to `CCCCCCCCCCCCCCCCCCNC(=O)OC[C@H](COC(=O)CCC[n+]1ccccc1)OC(=O)OC` [Example 21d, 1-[3-[[(S)-2-[(methoxycarbonyl)oxy]-3-[(octadecylcarbamoyl)oxy]propoxy]carbonyl]propyl]pyridinium iodide], for which the IC50 is 200 nM. As for `CCCCCCCCCCCCCCCCCCOC[C@H](COC(=O)CCC[n+]1ccccc1)OC(=O)NC` [Example 1, 1-[3-[[(R)-2-[(methylcarbamoyl)oxy]-3-(octadecyloxy)propoxy]carbonyl]-propyl]pyridinium chloride], the IC50 is 1600 nM. In the case of `CCCCCCCCCCCCCCCCCCNC(=O)OC[C@@H](COC(=O)CCC[n+]1ccccc1)OC(=O)OC` [Example 21b, 1-[3-[[(R)-2-[(methoxycarbonyl)oxy]-3-[(octadecylcarbamoyl)oxy]propoxy]carbonyl]propyl]pyridinium chloride], the IC50 is 200 nM.

Regarding “1-[3-[[[(RS)-2-(1-methoxyformamido)-3-(octadecyloxy)propoxy]carbonyl]oxy]propyl]pyridinium chloride [Example 16]”, the IC50 was determined as 1500 nM. Then `CCCCCCCCCCCCCCCCCCOC[C@H](COC(=O)OCC[n+]1ccsc1)OC(=O)OC` [Example 12, 3-[2-[[[(R)-2-[(methoxycarbonyl)oxy]-3-(octadecyloxy)propoxy]carbonyl]oxy]ethyl]thiazolium bromide], with 2000 nM; and `CCCCCCCCCCCCCCCCCCNC(=O)OCC(COC(=O)CCC[n+]1ccccc1)OC(=O)OC` (racemic) [Example 21a, 1-[3-[[(RS)-2-[(methoxycarbonyl)oxy]-3-[(octadecylcarbamoyl)oxy]propoxy]carbonyl]propyl]pyridinium chloride], with 150 nM. As for `CCCCCCCCCCCCCCCCCCNC(=O)OC[C@@H](COC(=O)CCC[n+]1ccsc1)OC(=O)OC` [Example 21e, 3-[3-[[(R)-2-[(methoxycarbonyl)oxy]-3-[(octadecylcarbamoyl)oxy]propoxy]carbonyl]propyl]thiazolium iodide], the IC50 is 40 nM.

Values taken from patent US4731373A, “Glycerin derivatives and inhibition of blood PAF” (Hoffman-La Roche Inc., priority 1983, dated 1988).
